Measurements reported in patent publication US11377442B2, “Small molecule agonists and antagonists of NR2F6 activity” (ZANDER THERAPEUTICS, INC., priority 2016, dated 2022).
Where two headings read alike, the source gives them in different places.

Key:
Type in all cases: cell-based
HEK293 pGL4 = experiment: Firefly_pGL signal, cmpd/DMSO (pGL4 control cells); conditions: Homo sapiens
Renilla = Renilla signal in NR2F6 agonist screening, cmpd/DMSO; conditions: Renilla, F4
NR2F6 = target: T1, NR2F6 (Homo sapiens, UniProt P10588); experiment: NR2F6 agonist screening, Firefly signal cmpd/DMSO
T1 construct: expressed in transfected cells; also transient transfection
T1 sequence (P10588 1-404): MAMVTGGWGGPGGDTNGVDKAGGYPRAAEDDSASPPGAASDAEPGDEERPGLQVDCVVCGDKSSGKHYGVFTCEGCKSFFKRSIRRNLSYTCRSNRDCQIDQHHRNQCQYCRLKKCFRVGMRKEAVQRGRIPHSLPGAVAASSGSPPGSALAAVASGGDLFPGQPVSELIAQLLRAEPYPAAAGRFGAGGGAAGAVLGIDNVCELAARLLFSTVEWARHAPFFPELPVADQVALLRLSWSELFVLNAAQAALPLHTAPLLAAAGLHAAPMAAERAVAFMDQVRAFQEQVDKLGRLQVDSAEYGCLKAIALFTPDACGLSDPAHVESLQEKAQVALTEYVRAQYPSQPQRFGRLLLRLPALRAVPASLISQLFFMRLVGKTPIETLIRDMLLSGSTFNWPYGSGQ

NR2F6 LBD = target: T2, NR2F6 LBD (Homo sapiens, UniProt P10588); experiment: NR2F6 LBD transient transfection; conditions: LBD
T2 construct: expressed in transfected cells
T2 sequence (P10588 165-393 limits assumed): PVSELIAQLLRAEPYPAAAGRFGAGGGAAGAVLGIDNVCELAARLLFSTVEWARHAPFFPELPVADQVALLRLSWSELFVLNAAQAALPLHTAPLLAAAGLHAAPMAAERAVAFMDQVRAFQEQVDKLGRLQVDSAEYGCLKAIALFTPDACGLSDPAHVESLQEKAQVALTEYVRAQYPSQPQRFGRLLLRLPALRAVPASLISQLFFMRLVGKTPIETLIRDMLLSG
Summary of the method: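 LBD-transfected cells treated at 40, 10, 2 and 0.5 μM (4 replicates); cytotoxicity measured in parallel, normalized to DMSO (0%) and zero signal (100%). Higher concentrations excluded where signal loss reflected toxicity.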

[1] = HEK293, 0.5 uM, pGL4, read-out: Firefly pGL4, cmpd/DMSO (mean)
[2] = HEK293, 2 uM, pGL4, read-out: Firefly pGL4, cmpd/DMSO (mean)
[3] = HEK293, 10 uM, pGL4, read-out: Firefly pGL4, cmpd/DMSO (mean)
[4] = HEK293, 40 uM, pGL4, read-out: Firefly pGL4, cmpd/DMSO (mean)
[5] = read-out: Renilla, F4, cmpd/DMSO (mean)
[6] = 1% FBS, read-out: Renilla, F4, 1% FBS, cmpd/DMSO (mean)
[7] = 10% FBS, read-out: Renilla, F4, 10% FBS, cmpd/DMSO (mean)

## O=S1(=O)C[C@H](NC2CCCCC2)[C@@H](S(=O)(=O)c2ccc(Cl)cc2)C1 [Compound D124]
HEK293 pGL4; [1]
  fold induction at 0.5 µM: 1.4
HEK293 pGL4; [2]
  fold induction at 2 µM: 1.5
HEK293 pGL4; [3]
  fold induction at 10 µM: 3.1
HEK293 pGL4; [4]
  fold induction at 40 µM: 0.7
HEK293 pGL4; HEK293, pGL4, 1% FBS, 0.5 uM, read-out: Firefly, pGL4, 1% FBS, cmpd/DMSO (mean)
  fold induction at 0.5 µM: 1.1
HEK293 pGL4; HEK293, pGL4, 1% FBS, 2 uM, read-out: Firefly, pGL4, 1% FBS, cmpd/DMSO (mean)
  fold induction at 2 µM: 1.6
HEK293 pGL4; HEK293, pGL4, 1% FBS, 10 uM, read-out: Firefly, pGL4, 1% FBS, cmpd/DMSO (mean)
  fold induction at 10 µM: 2.4
HEK293 pGL4; HEK293, pGL4, 1% FBS, 40 uM, read-out: Firefly, pGL4, 1% FBS, cmpd/DMSO (mean)
  fold induction at 40 µM: 0.8
HEK293 pGL4; HEK293, pGL4, 10% FBS, 0.5 uM, read-out: Firefly, pGL4, 10% FBS, cmpd/DMSO (mean)
  fold induction at 0.5 µM: 1.2
HEK293 pGL4; HEK293, pGL4, 10% FBS, 2 uM, read-out: Firefly, pGL4, 10% FBS, cmpd/DMSO (mean)
  fold induction at 2 µM: 1.4
HEK293 pGL4; HEK293, pGL4, 10% FBS, 10 uM, read-out: Firefly, pGL4, 10% FBS, cmpd/DMSO (mean)
  fold induction at 10 µM: 2.2
HEK293 pGL4; HEK293, pGL4, 10% FBS, 40 uM, read-out: Firefly, pGL4, 10% FBS, cmpd/DMSO (mean)
  fold induction at 40 µM: 3.2
Renilla; [5]
  fold induction at 0.5 µM: 1.1
  fold induction at 2 µM: 1.2
  fold induction at 10 µM: 1.5
  fold induction at 40 µM: 1.8
Renilla; [6]
  fold induction at 0.5 µM: 1.1
  fold induction at 2 µM: 1.2
  fold induction at 10 µM: 1.5
  fold induction at 40 µM: 1.6
Renilla; [7]
  fold induction at 0.5 µM: 1
  fold induction at 2 µM: 1
  fold induction at 10 µM: 1.3
  fold induction at 40 µM: 2.6
NR2F6; 0.5 uM
  Firefly F4, cmpd/DMSO (mean): 1.6
NR2F6; 2 uM
  Firefly F4, cmpd/DMSO (mean): 1.3
NR2F6; 10 uM
  Firefly F4, cmpd/DMSO (mean): 4.6
NR2F6; 40 uM
  Firefly F4, cmpd/DMSO (mean): 2.1
NR2F6; 1% FBS, 10 uM
  F4, Firefly/Renilla for S/B(F4) > 3: 2.0
  Firefly, F4/pGL4 for S/B(F4) > 3: 1.3
  Firefly, F4, 1% FBS, cmpd/DMSO (mean): 3.1
NR2F6; 10% FBS, 40 uM
  F4, Firefly/Renilla for S/B(F4) > 3: 1.7
  Firefly, F4/pGL4 for S/B(F4) > 3: 1.4
  Firefly, F4, 10% FBS, cmpd/DMSO (mean): 4.5
NR2F6; 1% FBS, 0.5 uM
  Firefly, F4, 1% FBS, cmpd/DMSO (mean): 0.9
NR2F6; 1% FBS, 2 uM
  Firefly, F4, 1% FBS, cmpd/DMSO (mean): 1.9
NR2F6; 1% FBS, 40 uM
  Firefly, F4, 1% FBS, cmpd/DMSO (mean): 0.4
NR2F6; 10% FBS, 0.5 uM
  Firefly, F4, 10% FBS, cmpd/DMSO (mean): 1.2
NR2F6; 10% FBS, 2 uM
  Firefly, F4, 10% FBS, cmpd/DMSO (mean): 1.0
NR2F6; 10% FBS, 10 uM
  Firefly, F4, 10% FBS, cmpd/DMSO (mean): 2.3
NR2F6 LBD; 0.5 uM
  Firefly LBD, cmpd/DMSO (mean): 1.4
NR2F6 LBD; 2 uM
  Firefly LBD, cmpd/DMSO (mean): 1.6
NR2F6 LBD; 10 uM
  Firefly LBD, cmpd/DMSO (mean): 3.6
NR2F6 LBD; 40 uM
  Firefly LBD, cmpd/DMSO (mean): 0.5

## CC1CCN([C@H]2CS(=O)(=O)C[C@@H]2S(=O)(=O)c2ccc(Cl)cc2)CC1 [Compound D125]
HEK293 pGL4; [1]
  fold induction at 0.5 µM: 1.4
HEK293 pGL4; [2]
  fold induction at 2 µM: 1.9
HEK293 pGL4; [3]
  fold induction at 10 µM: 4.2
HEK293 pGL4; [4]
  fold induction at 40 µM: 0.6
Renilla; [5]
  fold induction at 0.5 µM: 1
  fold induction at 2 µM: 1.3
  fold induction at 10 µM: 1.8
  fold induction at 40 µM: 1.3
NR2F6; 0.5 uM
  Firefly F4, cmpd/DMSO (mean): 1.3
NR2F6; 2 uM
  Firefly F4, cmpd/DMSO (mean): 2.3
NR2F6; 10 uM
  Firefly F4, cmpd/DMSO (mean): 5.6
NR2F6; 40 uM
  Firefly F4, cmpd/DMSO (mean): 0.9
NR2F6; Table 31
  Activity, cmpd/DMSO: 7.3
NR2F6 LBD; 0.5 uM
  Firefly LBD, cmpd/DMSO (mean): 1.0
NR2F6 LBD; 2 uM
  Firefly LBD, cmpd/DMSO (mean): 1.6
NR2F6 LBD; 10 uM
  Firefly LBD, cmpd/DMSO (mean): 4.6
NR2F6 LBD; 40 uM
  Firefly LBD, cmpd/DMSO (mean): 0.4
